{"source": "patent US20070172425A1", "about": "“Testing cell cycle regulation effect of a compound using a hollow fibre cell implant” (priority 2003, published 2007)", "key": {"tumor": {"tested_on": "tumor", "settings": "100 and 200 mg/kg, intraperitoneal injection, literature; cited from earlier work"}, "HCT116 cells [1]": {"tested_on": "HCT116 cells", "test": "Inhibition of topotecan induced G2 arrest in vitro (FACS)", "format": "cell-based", "settings": "for inhibition of topotecan induced G2 arrest: 24 h", "protocol": "(§3) The compounds were added to the cells after G2 arrest induced by 18 h topotecan treatment at the indicated concentrations and incubated for a period of 24 h. Cells were then harvested and analyzed by FACS.\n(§4) Fixed cells were centrifuged at 1600 rpm for 5 minutes and the ETOH was decanted. They were then washed with 2 ml of PBS, recentrifuged and decanted. The cells were then stained with propidium iodide. Cell cycle study was performed using a FACSCalibur (Becton Dickinson) using Cell-QuestPro software. Cell cycle distribution was determined using either Modfit (Verity software house, ME, USA) or WinMDI (Joseph Trotter, Scripps Institute) software."}, "H460 cells [2]": {"tested_on": "H460 cells", "test": "Inhibition of topotecan induced G2 arrest in vitro (FACS)", "format": "cell-based", "settings": "24 h", "protocol": "as §3, §4"}, "HCT116 cells [3]": {"tested_on": "HCT116 cells", "test": "In vivo hollow fibre PD model, topotecan G2 arrested cells implanted in mice (FACS)", "settings": "for 0 h G2 % / 24 h % G1 / 24 h % G2 / Δ% G2/ Δ% G1 / SΔ % G2: Control TOP (vehicle); for SΔ % G2: % G2 at 24 h - % G2 at 0 h", "protocol": "Specifically, HCT116 cells were first arrested at G2 with topotecan (TOP) treatment. At the end of 18 h topotecan treatment, fibres were implanted subcutaneously to mice with 4 fibres per mouse (FIG. 3A). Control fibres without topotecan treatment were also included (FIGS. 3F, G). […] The first injection was administered immediately after fibre implantation while the second injection was given 5 hours later. Mice in the TOP alone control group (n=2) received vehicle (0.9% NaCl) only (FIG. 3D). After implantation, fibres (8 fibres per time point) were retrieved from mice at indicated time points. Cells were then flushed out from the fibres and analyzed by FACS and immunoblotting.\nAt indicated time points, fibres were removed from mice, wiped with gauze and placed in petri dishes or 6 well plates containing enough warm media to cover fibres. Both ends of the fibres were then cut open using forceps and scissors. The fibres were flushed twice with a 200 μL pipette filled with medium by inserting into fibre opening. The medium containing the cells were collected and centrifuged for 3-minutes at 1600 rpm. The supernatant was discarded and 1 mL of trypsin was added onto the pellets and mixed until single cell suspension is obtained. Then, 5 mL of serum rich medium was added to the cell suspension and centrifuged. The supernatant was then decanted leaving approximately 200 μL of cell suspension. The suspension was then added. drop wise while vortexing to 5 mL of ice cold 70% ETOH. Cells were then fixed at −20° C. for a minimum of 1 hour. The cells obtained were then processed according to FACS staining protocol. 3-8 fibres from each time point were typically used for FACS analysis."}, "HCT116 cells [4]": {"tested_on": "HCT116 cells", "test": "Topotecan induced G2 arrest in vitro (topotecan titration, FACS)", "format": "cell-based", "method": "(§1) To perform the experiments, cells were grown to 50% confluency in 10 cm dishes. The cells were then dosed with topotecan at indicated concentrations for 18 hours. Cells were then harvested and the G2 arrest was analyzed by FACS analysis 24 h later.\n(§2) The cells were then stained with propidium iodide."}, "H460 cells [5]": {"tested_on": "H460 cells", "test": "Topotecan induced G2 arrest in vitro (topotecan titration, FACS)", "format": "cell-based", "method": "as §1, §2"}, "HCT116 cells [6]": {"tested_on": "HCT116 cells", "test": "Double thymidine block and G2 arrest with brief topotecan treatment in vitro", "format": "cell-based", "settings": "1 h treatment, 24 h after block removal", "method": "We adapted the study of G2 checkpoint regulation to the study of other cell cycle regulation pathways. Cells were first synchronized at the G1/S boundary by means of a double thymidine block (FIG. 7A-F). After synchronization, cells were harvested at indicated time points for observation of cell cycle progression (7B, C). To arrest cells at G2 checkpoint, the synchronized cells were incubated with topotecan at indicated concentrations for 1 h, and the topotecan was added 30 to 60 minutes after the release of double thymidine block. Topotecan treated cells were then harvested 24 h after double thymidine block and analyzed with FACS. Alternatively, at the end of double thymidine block, fibres were implanted to mice subcutaneously (4 fibres per mouse); fibres were retrieved from mice at the specified time points (8 fibres per time point) and analyzed by FACS. Control fibers without double thymidine treatment (8A, F) were also included.\nCells were plated onto 10-cm dishes on day 1 such that 30% confluence is reached on day 2. In hollow fibre experiments, loaded fibres were made on day 1, and incubated in the dishes overnight. On day 2, thymidine was added to the dishes to a final concentration of 2 mM. […] Cells were harvested 24 hours after the second thymidine treatment, and analyzed by FACS analysis. […]"}, "[7]": {"settings": "TOP alone (50 nM, 18 h), 30 h, mean"}, "[8]": {"settings": "TOP alone (50 nM, 18 h), 30 h, single replicates, listed as TOP"}}, "note": "Several values for one entry are separate records, joined by “and”; a condition that tells them apart may be missing. Equal values may be shown once."}
{"molecule": "Cn1c(=O)c2c(ncn2C)n(C)c1=O", "note": "[Caffeine]", "values": [{"measurement": "sensitization of tumor to radiotherapy by inhibiting radiation induced G2 arrest", "setting": "tumor", "result": "sensitize tumor to radiotherapy"}, {"measurement": "inhibition of topotecan induced G2 arrest", "setting": "HCT116 cells [1]; 4 mM, HCT116", "result": "significantly inhibits topotecan induced G2 arrest"}, {"measurement": "inhibition of topotecan induced G2 arrest", "setting": "H460 cells [2]; 4 mM, H460", "result": "significantly inhibits topotecan induced G2 arrest"}, {"measurement": "inhibition of topotecan induced G2 arrest in tumor cells in vivo", "setting": "HCT116 cells [3]; systemic injection to mice", "result": "inhibit topotecan induced G2 arrest"}]}
{"molecule": "Cn1c2ccccc2c2c3c(c4c5ccccc5n(CCC#N)c4c21)CNC3=O", "note": "[Go6976]", "values": [{"measurement": "inhibition of topotecan induced G2 arrest", "setting": "HCT116 cells [1]; 1.3 μM, HCT116 (FIG. 2H)", "result": "effectively inhibits G2 arrest"}, {"measurement": "toxicity to cells (microscope, FACS)", "setting": "HCT116 cells [1]; Go6976 alone at the tested concentration", "result": "does not show any signs of toxicity"}, {"measurement": "inhibition of topotecan induced G2 arrest", "setting": "H460 cells [2]; 5 μM, H460 (FIG. 2D)", "result": "effectively inhibits G2 arrest"}]}
{"molecule": "CC[C@@]1(O)C(=O)OCc2c1cc1n(c2=O)Cc2cc3c(CN(C)C)c(O)ccc3nc2-1", "note": "[Topotecan]", "values": [{"measurement": "time at which cells begin to reenter the cell cycle after topotecan treatment", "setting": "HCT116 cells [4]; HCT116", "result": "~9", "unit": "h"}, {"measurement": "minimal concentration required to achieve an efficient G2 arrest", "setting": "HCT116 cells [4]; HCT116, 18 h treatment", "result": 25, "unit": "nM"}, {"measurement": "time at which cells begin to reenter the cell cycle after topotecan treatment", "setting": "H460 cells [5]; H460", "result": "about 7 h"}, {"measurement": "concentration that sufficiently arrests cells at the G2 checkpoint", "setting": "H460 cells [5]; H460, 18 h treatment", "result": 50, "unit": "nM"}, {"measurement": "G2 arrest of double thymidine block synchronized cells", "setting": "HCT116 cells [6]; 2 μM", "result": "complete G2 arrest"}, {"measurement": "S phase arrest of double thymidine block synchronized cells", "setting": "HCT116 cells [6]; 5 μM", "result": "noticeable S phase arrest"}, {"measurement": "G2 arrest at 30 hour after implantation", "setting": "HCT116 cells [3]; 30 nM topotecan, 30 h", "result": "~70", "unit": "%"}, {"measurement": "cells arrested at G2/M phase at time 0 h", "setting": "HCT116 cells [3]; 50 nM topotecan 18 h, HCT116 in hollow fibres, 0 h", "result": "About 90%"}, {"measurement": "G2 arrest at 30 hour after implantation", "setting": "HCT116 cells [3]; 50 nM topotecan, 30 h", "result": "about 90%"}, {"measurement": "0 h G2 %", "setting": "HCT116 cells [3]; Exp. 1, 0 h", "result": 83.00, "unit": "%"}, {"measurement": "24 h % G1", "setting": "HCT116 cells [3]; Exp. 1, 24 h", "result": 23.00, "unit": "%"}, {"measurement": "24 h % G2", "setting": "HCT116 cells [3]; Exp. 1, 24 h", "result": 71.00, "unit": "%"}, {"measurement": "Δ% G2/ Δ% G1", "setting": "HCT116 cells [3]; Exp. 1, 24 h", "result": 3.09}, {"measurement": "SΔ % G2", "setting": "HCT116 cells [3]; Exp. 1", "result": "−12.00", "unit": "%"}, {"measurement": "0 h G2 %", "setting": "HCT116 cells [3]; Exp. 2, 0 h", "result": 69.00, "unit": "%"}, {"measurement": "24 h % G1", "setting": "HCT116 cells [3]; Exp. 2, 24 h", "result": 16.00, "unit": "%"}, {"measurement": "24 h % G2", "setting": "HCT116 cells [3]; Exp. 2, 24 h", "result": 58.00, "unit": "%"}, {"measurement": "Δ% G2/ Δ% G1", "setting": "HCT116 cells [3]; Exp. 2, 24 h", "result": 3.63}, {"measurement": "SΔ % G2", "setting": "HCT116 cells [3]; Exp. 2", "result": "−11.00", "unit": "%"}, {"measurement": "% G1, Mean", "setting": "HCT116 cells [3]; [7]", "result": 7.9, "unit": "%"}, {"measurement": "% G2, Mean", "setting": "HCT116 cells [3]; [7]", "result": 88.7, "unit": "%"}, {"measurement": "Odd (% G2/% G1), Mean", "setting": "HCT116 cells [3]; [7]", "result": 11.4}, {"measurement": "% G1", "setting": "HCT116 cells [3]; [8]", "result": "7.3% and 7.2% and 9.0%"}, {"measurement": "% G2", "setting": "HCT116 cells [3]; [8]", "result": "88.1% and 90.2% and 87.9%"}, {"measurement": "Odd (% G2/% G1)", "setting": "HCT116 cells [3]; [8]", "result": "12.0 and 12.5 and 9.7"}, {"measurement": "Odd ratio", "setting": "HCT116 cells [3]; TOP alone, reference group", "result": 1.0}]}
